One assay relates to ob/ob mice. Briefly: GC-MS analyses of fatty acids in the livers of ob/ob mice. The class given is in vivo, mouse. On the procedure: Liver samples (100 mg) obtained from fatostatin A-treated ob/ob mice and non-treated control mice and stored at −80° C. until analyzed for fatty acid contents. The fatty acids were extracted according to Folch's protocol and quantitatively analyzed using gas chromatography-mass spectrometry (GC-SM). As shown in the above table, there is about 50% reduction of C14:0 and C16:0, the products of the de novo fatty acid synthesis, and about 70% reduction of monounsaturated fatty acids C16:1, C18:1 and C20:1 and their elongation-desaturation products (C18:2)N-6, (C18:3)N-6, (C20:2)N-6, (C20-3)N-6 and (C20:5)N-3. Myristate (C14:0) and palmitate (C16:0), the products of FAS, were reduced by about 50% (P<0.05). There was no change in C18 levels, which is derived not only from de novo fatty acid synthesis by FAS, but also from food and chain elongation system. […] Also, the levels of polyunsaturated long-chain fatty acids (18:2)N-6, (18:3)N-6, (20:2)N-6, (20:3)N-6 and (20:5)N-3 were reduced 30-60%. These reductions are the result of down regulation of key enzymes in the lipogenic pathways (FAS, ACC and SCD, ACL) at transcription and translation.
Four- to 5-week old homozygous male obese (ob/ob) mice (C57BL/6J, The Jackson Laboratory, Bar Harbor, Me.) were housed under controlled conditions (12-hr light/dark cycle; 25° C.). The animals were housed 5 per cage and had ad libitum access to standard laboratory chow (Purina Mills, Richmond Ind.) and water for one week after their arrival. On first day of the experiment and every day thereafter the weight of the mice and the amount of the food consumed were measured. The weight of mice and food remaining were measured daily between 3-5 p.m. before the ip injection of fatostatin A (30 mg/kg; 150 μL). The administration of Fatostatin A or 10% DMSO in PBS to control groups (n=5) continued daily for four weeks till the end of the study.

The test system of the next assay is SREBP-1. Description: Western blot of SREBP-1 processing in DU145 cells. The class given is cell-based, human. As to conditions: 6 hrs, IGF1. On the procedure:
To examine whether fatostatin A affects the proteolytic activation of SREBPs, whole cell lysates of DU145 cells treated with fatostatin A were analyzed by western blots with an antibody against the NH2 terminus of SREBP-1 (FIG. 3A). […] Similar results were obtained for SREBP-2 with an antibody against its COOH terminus (FIG. 3B).
DU145 prostate cancer cells were seeded on a 6-well plate at a density of 2×10^5 cells/well in a serum-free MEM incubated at 37° C. for overnight. The cells were then treated with DMSO or fatostatin A ([…]) in presence of IGF1 (1 μg/mL). After 6 hrs of incubation, the cells were harvested in PBS and lysated in an SDS buffer. The samples were separated on a 10% SDS-PAGE gel and blotted by using rabbit anti-SREBP-1 and anti-SREBP-2 antibodies. The specific bands were visualized by using enhanced chemiluminescent (ECL) detection reagents (Amersham).
In general terms: A western blot detects proteins with antibodies after separation by electrophoresis.

The next assay deals with SUM159 cells. Briefly: SUM159 cell growth, WST-1 assay, and lipogenic gene expression. The class given is cell-based, human. The procedure: Cells were seeded onto 96 well plates at a density of 10000 cells/well in 100 ul medium containing 2% charcoal stripped serum. After 24 hours, compound 19 was added to the cells at the indicated concentrations for another 48 hours. Cell viability was determined using WST-1 assay.
Cells seeded onto 96 well plates at a density of 5000 cells/well in 100 μl medium containing 2% charcoal treated serum. After 24 hours different concentrations of compound 19 were added for an additional 48 hours. Cell viability was measured using WST-1 Cell Viability and Proliferation Assay (ScienCell Research Laboratory, Carlsbad Calif.). Changes in expression levels of lipogenic genes mRNA was determined in cells that were treated with 10 μM. […] Insig2 gene which is not known to be regulated by these transcription factors was not affected by the treatment (FIG. 33B).
(Tetrazolium dyes change colour on reduction, which living cells bring about.)

`CCCc1cc(-c2nc(-c3ccc(C)cc3)cs2)ccn1` [Compound 1, 2-propyl-4-(4-p-tolylthiazol-2-yl)pyridine]: in the assay on ob/ob mice (ob/ob mice liver), the “Fatty Acid (14:0) Ratio treated:control” value turned out to be 0.5148, the “Fatty Acid (16:0) Ratio treated:control” value worked out at 0.4367, the “Fatty Acid (16:1) Ratio treated:control” value amounted to 0.3285 and the “Fatty Acid (18:0) Ratio treated:control” value came to 1.066. For the same compound, in the assay with ob/ob mice (ob/ob mice liver), the “Fatty Acid (18:1) Ratio treated:control” value is on record as 0.2922, the “Fatty Acid (18:2)N-6 Ratio treated:control” value is 0.638, the “Fatty Acid (18:3)N-3 Ratio treated:control” value is 1.218 and the “Fatty Acid (18:3)N-6 Ratio treated:control” value is listed as 0.4232. In the assay with ob/ob mice (ob/ob mice liver), the “Fatty Acid (20:0) Ratio treated:control” value stood at 0.8517, the “Fatty Acid (20:1) Ratio treated:control” value amounted to 0.3245, the “Fatty Acid (20:2)N-6 Ratio treated:control” value was 0.4668 and the “Fatty Acid (20:3)N-6 Ratio treated:control” value worked out at 0.6297. In addition, in the assay on ob/ob mice (ob/ob mice liver), the “Fatty Acid (20:4)N-6 Ratio treated:control” value is reported as 1.125, the “Fatty Acid (20:5)N-3 Ratio treated:control” value came out at 0.6994, the “Fatty Acid (22:0) Ratio treated:control” value was 1.266 and the “Fatty Acid (22:1) Ratio treated:control” value amounted to 0.871. In addition, in the assay with ob/ob mice (ob/ob mice liver), the “Fatty Acid (22:4)N-6 Ratio treated:control” value is 0.959, the “Fatty Acid (22:5)N-3 Ratio treated:control” value turned out to be 0.7357, the “Fatty Acid (22:5)N-6 Ratio treated:control” value is on record as 1.18 and the “Fatty Acid (22:6)N-3 Ratio treated:control” value stood at 1.058. In the assay on ob/ob mice (ob/ob mice liver), the “Fatty Acid (24:0) Ratio treated:control” value was found to be 1.308 and the “Fatty Acid (24:1) Ratio treated:control” value was determined as 1.699. In addition, in the assay with ob/ob mice (treated ob/ob mice), the Fatty Acid (16:0) in liver amounted to 37100 ± 3660 nmol/g liver, the Fatty Acid (16:1) in liver worked out at 11400 ± 228 nmol/g liver, the Fatty Acid (18:0) in liver was 15100 ± 916 nmol/g liver and the Fatty Acid (18:1) in liver was 44500 ± 8840 nmol/g liver. In the assay with ob/ob mice (treated ob/ob mice), this compound gave a Fatty Acid (18:2)N-6 in liver of 29700 ± 2460 nmol/g liver, a Fatty Acid (20:0) in liver of 164 ± 22.9 nmol/g liver, a Fatty Acid (22:0) in liver of 116 ± 26 nmol/g liver and a Fatty Acid (24:0) in liver of 158 ± 7.02 nmol/g liver. Moreover, in the assay on ob/ob mice (vs untreated control mice), the “increase in C24:0 in livers” value came out at 30%; the “lowering of C20:0 in livers” value is reported as “about 15%”; the “reduction of (18:2)N-6, (18:3)N-6, (20:2)N-6, (20:3)N-6 and (20:5)N-3 in livers” value is 30-60%; the “reduction of (C18:2)N-6, (C18:3)N-6, (C20:2)N-6, and (C20-3)N-6 in livers” value was “about 50%”. Also, in the assay on ob/ob mice (vs untreated control mice), the “reduction of C14:0 and C16:0 in livers” value is on record as “about 50%”; the “reduction of monounsaturated fatty acids C16:1, C18:1 and C20:1 in livers” value is listed as “about 70%”. The “amounts of mature and precursor forms of SREBP-1 (western blot)” value in the assay with SREBP-1 is “decreased the amounts of the 68 KDa mature form of SREBP-1 in a dose-dependent manner”.

As for `CCCc1cc(-c2nc(-c3ccc(NS(C)(=O)=O)cc3)cs2)ccn1` [Compound 19, N-(4-(2-(2-propylpyridin-4-yl)thiazol-4-yl)phenyl)methanesulfonamide], in the assay on SUM159 cells (10 μM, Insig2 not affected), the “expression levels of lipogenic genes mRNA under the control of SREBPs” value is listed as “significant downregulation”. Moreover, in the assay on SUM159 cells (different concentrations, 48 hours, 2% charcoal treated serum), the “cell growth / viability” value is “inhibition of cell growth and a toxic effect”.

These data come from patent publication US9713613B2, “Methods and compositions for the treatment of cancer and related hyperproliferative disorders” (priority 2007, dated 2017).
